Entries after “also recorded” stand apart in the source; their conditions may differ. Square brackets hold non-standard residues; d marks the D form. Ends that are not written are not given here. Peptide text beside a SMILES is read from it. Phe(4-F) = N[C@@H](Cc1ccc(F)cc1)C(=O)O
Tested on: T cell lines against a natural (non-mutated) epitope (SSX-241-49)
Assay: Cross-reactivity and functional avidity: IFN-gamma from T cell lines against natural SSX-2 41-49 epitope;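 note: peptide analogs tested ex vivo with competent APCs, IFN-gamma in supernatant measured by ELISA, readouts include minimal triggering concentration, peak effect and concentration at peak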
Type: cell-based, HHD transgenic mice
Conditions: for Cross-reactivity and fct avidity (native to analogs)*: IFN-gamma from T cell line raised against native SSX-2 41-49, native = 1, lower = more active

| Compound | Cross-reactivity and fct avidity (native to analogs)* | cross-reactivity / IFN-gamma inducing activity relative to wild-type, in words (SSX-2 41-49 analogs, wild-type specific T cells) |
| --- | --- | --- |
| CC[C@H](NC(=O)[C@@H](N)CCCCN)C(=O)N[C@@H](CO)C(=O)N[C@@H](CCC(=O)O)C(=O)N[C@@H](CCCCN)C(=O)N[C@H](C(=O)N[C@@H](Cc1ccccc1)C(=O)N[C@@H](Cc1ccc(O)cc1)C(=O)N[C@H](C(=O)O)C(C)C)[C@@H](C)CC [SSX2 41-49 (A42(Abu)), KAbuSEKIFYV] | 0.3 |  |
| CC[C@H](C)[C@H](NC(=O)[C@H](CCCCN)NC(=O)[C@H](CCC(=O)O)NC(=O)[C@H](CO)NC(=O)C(C)(C)NC(=O)[C@@H](N)CCCCN)C(=O)N[C@@H](Cc1ccccc1)C(=O)N[C@@H](Cc1ccc(O)cc1)C(=O)N[C@H](C(=O)O)C(C)C [SSX2 41-49 (A42(Aib)), KAibSEKIFYV] | 3 |  |
| CC[C@H](C)[C@H](NC(=O)[C@H](CCCCN)NC(=O)[C@H](CCC(=O)O)NC(=O)[C@H](CO)NC(=O)[C@H](Cc1ccc2ccccc2c1)NC(=O)[C@@H](N)CCCCN)C(=O)N[C@@H](Cc1ccccc1)C(=O)N[C@@H](Cc1ccc(O)cc1)C(=O)N[C@H](C(=O)O)C(C)C [SSX2 41-49 (A42(Nal-2)), KNal-2SEKIFYV] | 3 |  |
| CCCC[C@H](NC(=O)[C@@H](N)CCCCN)C(=O)N[C@@H](CO)C(=O)N[C@@H](CCC(=O)O)C(=O)N[C@@H](CCCCN)C(=O)N[C@H](C(=O)N[C@@H](Cc1ccccc1)C(=O)N[C@@H](Cc1ccc(O)cc1)C(=O)N[C@H](C(=O)O)C(C)C)[C@@H](C)CC [SSX2 41-49 (A42(Nle)), KNleSEKIFYV] | 0.1 |  |
| CCC[C@H](NC(=O)[C@@H](N)CCCCN)C(=O)N[C@@H](CO)C(=O)N[C@@H](CCC(=O)O)C(=O)N[C@@H](CCCCN)C(=O)N[C@H](C(=O)N[C@@H](Cc1ccccc1)C(=O)N[C@@H](Cc1ccc(O)cc1)C(=O)N[C@H](C(=O)O)C(C)C)[C@@H](C)CC [SSX2 41-49 (A42(Nva)), KNvaSEKIFYV] | 0.1 |  |
| CC[C@H](C)[C@H](NC(=O)[C@H](CCCCN)NC(=O)[C@H](CCC(=O)O)NC(=O)[C@H](CO)NC(=O)[C@H](CC(C)C)NC(=O)[C@@H](N)CCCCN)C(=O)N[C@@H](Cc1ccccc1)C(=O)N[C@@H](Cc1ccc(O)cc1)C(=O)N[C@H](C(=O)O)C(C)C [SSX2 41-49 (A42L)] | 0.03 |  |
| CC[C@H](C)[C@H](NC(=O)[C@H](CCCCN)NC(=O)[C@H](CCC(=O)O)NC(=O)[C@H](CO)NC(=O)[C@H](CC(C)C)NC(=O)[C@H](N)CCCCN)C(=O)N[C@@H](Cc1ccccc1)C(=O)N[C@@H](Cc1ccc(O)cc1)C(=O)N[C@H](C(=O)O)C(C)C [SSX2 41-49 (K41(D-Lys), A42L)] | 10 |  |
| CC[C@H](C)[C@H](NC(=O)[C@H](CCCCN)NC(=O)[C@H](CCC(=O)O)NC(=O)[C@H](CO)NC(=O)[C@@H](NC(=O)[C@H](N)CCCCN)C(C)C)C(=O)N[C@@H](Cc1ccccc1)C(=O)N[C@@H](Cc1ccc(O)cc1)C(=O)N[C@H](C(=O)O)C(C)C [SSX2 41-49 (K41(D-Lys), A42V)] | 10 |  |
| CC[C@H](C)[C@H](NC(=O)[C@H](CCCCN)NC(=O)[C@H](CCC(=O)O)NC(=O)[C@H](CO)NC(=O)[C@H](C)NC(=O)[C@@H](N)Cc1ccc(F)cc1)C(=O)N[C@@H](Cc1ccccc1)C(=O)N[C@@H](Cc1ccc(O)cc1)C(=O)N[C@H](C(=O)O)C(C)C [SSX2 41-49 (K41(Phe-4F))] (H-[Phe(4-F)]ASEKIFYV-OH) | 3 |  |
| CC[C@H](C)[C@H](NC(=O)[C@H](CCCCN)NC(=O)[C@H](CCC(=O)O)NC(=O)[C@H](CO)NC(=O)[C@H](CC(C)C)NC(=O)[C@@H](N)Cc1ccccc1)C(=O)N[C@@H](Cc1ccccc1)C(=O)N[C@@H](Cc1ccc(O)cc1)C(=O)N[C@H](C(=O)O)C(C)C [SSX2 41-49 (K41F, A42L)] | 0.3 |  |
| CC[C@H](C)[C@H](NC(=O)[C@H](CCCCN)NC(=O)[C@H](CCC(=O)O)NC(=O)[C@H](CO)NC(=O)[C@H](CCSC)NC(=O)[C@@H](N)Cc1ccccc1)C(=O)N[C@@H](Cc1ccccc1)C(=O)N[C@@H](Cc1ccc(O)cc1)C(=O)N[C@H](C(=O)O)C(C)C [SSX2 41-49 (K41F, A42M)] | 3 |  |
| CC[C@H](C)[C@H](NC(=O)[C@H](CCCCN)NC(=O)[C@H](CO)NC(=O)[C@H](CO)NC(=O)[C@@H](NC(=O)[C@@H](N)Cc1ccccc1)C(C)C)C(=O)N[C@@H](Cc1ccccc1)C(=O)N[C@@H](Cc1ccc(O)cc1)C(=O)N[C@H](C(=O)O)C(C)C [SSX2 41-49 (K41F, A42V, E44S)] | >10 |  |
| CC[C@H](C)[C@H](NC(=O)[C@H](CCCCN)NC(=O)[C@@H](NC(=O)[C@H](CO)NC(=O)[C@@H](NC(=O)[C@@H](N)Cc1ccccc1)C(C)C)[C@@H](C)O)C(=O)N[C@@H](Cc1ccccc1)C(=O)N[C@@H](Cc1ccc(O)cc1)C(=O)N[C@H](C(=O)O)C(C)C [SSX2 41-49 (K41F, A42V, E44T)] | >10 |  |
| CC[C@H](C)[C@H](NC(=O)[C@H](CCCCN)NC(=O)[C@H](CCC(=O)O)NC(=O)[C@H](CO)NC(=O)[C@@H](NC(=O)[C@@H](N)Cc1ccccc1)C(C)C)C(=O)N[C@@H](Cc1ccccc1)C(=O)N[C@@H](Cc1ccc(O)cc1)C(=O)N[C@@H](C)C(=O)O [SSX2 41-49 (K41F, A42V, V49A)] | 1 |  |
| CC[C@H](NC(=O)[C@H](Cc1ccc(O)cc1)NC(=O)[C@H](Cc1ccccc1)NC(=O)[C@@H](NC(=O)[C@H](CCCCN)NC(=O)[C@H](CCC(=O)O)NC(=O)[C@H](CO)NC(=O)[C@@H](NC(=O)[C@@H](N)Cc1ccccc1)C(C)C)[C@@H](C)CC)C(=O)O [SSX2 41-49 (K41F, A42V, V49Abu)] | 1 |  |
| CC[C@H](C)[C@H](NC(=O)[C@H](CCCCN)NC(=O)[C@H](CCC(=O)O)NC(=O)[C@H](CO)NC(=O)[C@@H](NC(=O)[C@@H](N)Cc1ccccc1)C(C)C)C(=O)N[C@@H](Cc1ccccc1)C(=O)N[C@@H](Cc1ccc(O)cc1)C(=O)N[C@@H](CC(C)C)C(=O)O [SSX2 41-49 (K41F, A42V, V49L)] | >10 |  |

| Compound | Cross-reactivity and fct avidity (native to analogs)* | cross-reactivity / IFN-gamma inducing activity relative to wild-type, in words (SSX-2 41-49 analogs, wild-type specific T cells) |
| --- | --- | --- |
| CC[C@H](C)[C@H](NC(=O)[C@H](CCCCN)NC(=O)[C@H](CCC(=O)O)NC(=O)[C@H](CO)NC(=O)[C@@H](NC(=O)[C@@H](N)Cc1ccccc1)C(C)C)C(=O)N[C@@H](Cc1ccccc1)C(=O)N[C@@H](Cc1ccc(O)cc1)C(=O)N(C)[C@H](C(=O)O)C(C)C [SSX2 41-49 (K41F, A42V, V49MeVal)] | 10 |  |
| CCCC[C@H](NC(=O)[C@H](Cc1ccc(O)cc1)NC(=O)[C@H](Cc1ccccc1)NC(=O)[C@@H](NC(=O)[C@H](CCCCN)NC(=O)[C@H](CCC(=O)O)NC(=O)[C@H](CO)NC(=O)[C@@H](NC(=O)[C@@H](N)Cc1ccccc1)C(C)C)[C@@H](C)CC)C(=O)O [SSX2 41-49 (K41F, A42V, V49Nle)] | >10 |  |
| CCC[C@H](NC(=O)[C@H](Cc1ccc(O)cc1)NC(=O)[C@H](Cc1ccccc1)NC(=O)[C@@H](NC(=O)[C@H](CCCCN)NC(=O)[C@H](CCC(=O)O)NC(=O)[C@H](CO)NC(=O)[C@@H](NC(=O)[C@@H](N)Cc1ccccc1)C(C)C)[C@@H](C)CC)C(=O)O [SSX2 41-49 (K41F, A42V, V49Nva)] | 0.1 |  |
| CC[C@H](C)[C@H](NC(=O)[C@H](CCCCN)NC(=O)[C@H](CCC(=O)O)NC(=O)[C@H](CO)NC(=O)[C@H](C)NC(=O)[C@@H](N)Cc1c[nH]c2ccccc12)C(=O)N[C@@H](Cc1ccccc1)C(=O)N[C@@H](Cc1ccc(O)cc1)C(=O)N[C@H](C(=O)O)C(C)C [SSX2 41-49 (K41W)] | >10 |  |
| CC[C@H](C)[C@H](NC(=O)[C@H](CCCCN)NC(=O)[C@H](CCC(=O)O)NC(=O)[C@H](CO)NC(=O)[C@@H](NC(=O)[C@@H](N)Cc1c[nH]c2ccccc12)[C@@H](C)CC)C(=O)N[C@@H](Cc1ccccc1)C(=O)N[C@@H](Cc1ccc(O)cc1)C(=O)N[C@H](C(=O)O)C(C)C [SSX2 41-49 (K41W, A42I)] | 0.1 |  |
| CC[C@H](C)[C@H](NC(=O)[C@H](CCCCN)NC(=O)[C@H](CCC(=O)O)NC(=O)[C@H](CO)NC(=O)[C@@H](NC(=O)[C@@H](N)Cc1ccc(O)cc1)[C@@H](C)CC)C(=O)N[C@@H](Cc1ccccc1)C(=O)N[C@@H](Cc1ccc(O)cc1)C(=O)N[C@H](C(=O)O)C(C)C [SSX2 41-49 (K41Y, A42I)] | 1 |  |
| CC[C@H](C)[C@H](NC(=O)[C@H](CCCCN)NC(=O)[C@H](CCC(=O)O)NC(=O)[C@H](CO)NC(=O)[C@H](C)NC(=O)[C@@H](N)CCCCN)C(=O)N[C@@H](Cc1ccccc1)C(=O)N[C@@H](Cc1ccc(O)cc1)C(=O)N[C@H](C(=O)O)C(C)C [SSX2 41-49, reference compound] | 1 |  |
| FVSEKIFY(Aib) [SSX2 41-49 (K41F, A42V, V49Aib)] | >10 |  |
| FVSEKLFTA | >10 |  |
| FVSEKMFYV [SSX2 41-49 (K41F, A42V, I46M)] | >10 |  |
| FVSEKVFYV (T cell peptide epitope analog) [SSX2 41-49 (K41F, A42V, I46V)] | 1 |  |
| FVSNKIFYV [SSX2 41-49 (K41F, A42V, E44N)] | >10 |  |
| K(D-Ala)SEKIFYV [SSX2 41-49 (A42(D-Ala))] | 10 |  |
| K(D-Val)SEKIFYV [SSX2 41-49 (A42(D-Val))] | 3 |  |
| KASEKIFYV [SSX2 41-49-NH2] | >10 |  |
| KASEKIFYVY [SSX-241-50, wild-type SSX-2 41-50 decamer peptide, reference compound] |  | significantly less active; also recorded: no immunological activity |

— US7605227B2, “Melanoma antigen peptide analogues” (MannKind Corporation, priority 2005, dated 2009)
